The text below walks through data of paper PMC10556057, “The proton channel OTOP1 is a sensor for the taste of ammonium chloride” (Nature Communications, 2023).

The structures appear in SMILES notation.

The target in this experiment is T1, mOTOP1 (Mus musculus, UniProt Q80VM9).
T1 construct: gene Otop1; full length in HEK-293 / PAC-KO cells; homodimer
T1 sequence (Q80VM9 1-600): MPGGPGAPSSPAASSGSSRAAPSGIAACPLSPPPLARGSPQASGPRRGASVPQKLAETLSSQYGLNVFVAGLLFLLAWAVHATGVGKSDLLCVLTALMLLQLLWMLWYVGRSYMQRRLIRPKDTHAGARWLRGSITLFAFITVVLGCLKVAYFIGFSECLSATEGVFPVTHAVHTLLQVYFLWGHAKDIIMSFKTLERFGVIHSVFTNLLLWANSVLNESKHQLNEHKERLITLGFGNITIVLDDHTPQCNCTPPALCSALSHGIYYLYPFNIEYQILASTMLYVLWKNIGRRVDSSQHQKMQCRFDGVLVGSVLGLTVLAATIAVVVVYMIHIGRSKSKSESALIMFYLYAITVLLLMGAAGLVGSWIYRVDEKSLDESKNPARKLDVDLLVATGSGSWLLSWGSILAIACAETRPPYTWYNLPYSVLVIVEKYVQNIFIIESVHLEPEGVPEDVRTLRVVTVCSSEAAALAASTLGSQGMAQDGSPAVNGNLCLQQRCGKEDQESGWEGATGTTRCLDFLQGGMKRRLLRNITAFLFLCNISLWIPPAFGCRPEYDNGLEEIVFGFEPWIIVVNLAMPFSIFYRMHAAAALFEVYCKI
In words: whole-cell patch clamp, inward current in HEK-293. Type of experiment: cell-based.

With `N` [NH4Cl], the EC50 worked out at 18.7 mM.
